Assay results taken from article PMC10709440, “High-throughput ligand profile characterization in novel cell lines expressing seven heterologous insect olfactory receptors for the detection of volatile plant biomarkers” (Scientific Reports, 2023).
Like-named read-outs stand apart in the source and are kept apart here.

Key:
Drosophila OR85b = target: T1, Drosophila OR85b (Drosophila melanogaster, UniProt Q9VHQ7); assay: Calcium ion fluorescence (GCaMP6) assay, OR85b stable HEK293 cell line; format: cell-based; details: for activation at 1 µM / activation at 10 µM / activation at 100 µM: HEK293, read-out: OR85b response (VUAA1-normalized response); for Average response: VUAA1-normalized response, mean of biological replicates
T1 construct: expressed in transfected cells
T1 sequence (Q9VHQ7 1-390): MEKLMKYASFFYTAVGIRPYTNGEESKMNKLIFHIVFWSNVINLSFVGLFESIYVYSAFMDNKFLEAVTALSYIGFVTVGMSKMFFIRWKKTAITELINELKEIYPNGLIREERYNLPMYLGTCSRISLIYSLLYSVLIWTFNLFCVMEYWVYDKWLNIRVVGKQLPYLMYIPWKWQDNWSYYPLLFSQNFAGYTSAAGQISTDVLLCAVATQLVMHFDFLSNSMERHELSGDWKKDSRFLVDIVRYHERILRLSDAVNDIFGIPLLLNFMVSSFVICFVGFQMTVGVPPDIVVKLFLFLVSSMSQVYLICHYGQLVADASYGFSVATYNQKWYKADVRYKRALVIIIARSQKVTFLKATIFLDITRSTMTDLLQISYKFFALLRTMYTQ
T1 sequence (Q9VNB5 1-486 partner): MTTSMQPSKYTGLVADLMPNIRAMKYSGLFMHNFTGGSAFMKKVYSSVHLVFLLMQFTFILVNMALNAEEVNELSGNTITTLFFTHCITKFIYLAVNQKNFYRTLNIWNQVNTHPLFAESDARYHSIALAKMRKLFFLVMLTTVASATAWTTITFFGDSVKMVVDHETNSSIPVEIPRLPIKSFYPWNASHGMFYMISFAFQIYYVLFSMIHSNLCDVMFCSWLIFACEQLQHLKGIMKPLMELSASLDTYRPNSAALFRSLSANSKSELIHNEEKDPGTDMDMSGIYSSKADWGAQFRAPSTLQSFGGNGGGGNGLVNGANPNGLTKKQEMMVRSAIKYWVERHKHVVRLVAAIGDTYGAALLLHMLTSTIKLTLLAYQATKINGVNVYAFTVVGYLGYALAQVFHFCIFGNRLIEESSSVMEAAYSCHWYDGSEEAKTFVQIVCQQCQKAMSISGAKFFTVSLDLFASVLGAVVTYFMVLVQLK
In short: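 Responses are VUAA1-normalized ΔF: each VOC-evoked calcium signal, (FMAX−F0)/F0 over 30 s after injection, divided by the same line's mean 50 µM VUAA1 response. Cells were doxycycline-induced HEK293 with GCaMP6 and the cognate Drosophila OR, in HEPES buffer pH 7.3; ligands tested 0.01–100 μM.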

OR10a = test system: OR10a; design: method as in earlier work; details: DoOR database value, ref DoOR, cited from earlier work
OR13a = test system: OR13a; design: method as in earlier work; details: DoOR database value, ref DoOR, cited from earlier work
OR47a = test system: OR47a; design: method as in earlier work; details: DoOR database value, ref DoOR, cited from earlier work
OR49b = test system: OR49b; design: method as in earlier work; details: DoOR database value, ref DoOR, cited from earlier work
OR71a = test system: OR71a; design: method as in earlier work; details: DoOR database value; ref DoOR; cited from earlier work
OR85b = test system: OR85b; design: method as in earlier work; details: DoOR database value, ref DoOR, cited from earlier work
OR98a = test system: OR98a; design: method as in earlier work; details: DoOR database value, ref DoOR, cited from earlier work
[1] = concentration 1, normalized fluorescence change, values below 0.05 threshold given as 0
[2] = concentration 10, normalized fluorescence change, values below 0.05 threshold given as 0
[3] = concentration 100, normalized fluorescence change, values below 0.05 threshold given as 0
[4] = ligand concentration 1 (unit not given), threshold 0.05, below shown as 0
[5] = ligand concentration 10 (unit not given), threshold 0.05, below shown as 0
[6] = ligand concentration 100 (unit not given), threshold 0.05, below shown as 0

| Structure (SMILES) | activation at 1 µM (Drosophila OR85b) [%] | activation at 10 µM (Drosophila OR85b) [%] | activation at 100 µM (Drosophila OR85b) [%] | Average response (Drosophila OR85b; OR85b cell line, cc. 1 µM) | Average response (Drosophila OR85b; OR85b cell line, cc. 10 µM) | Average response (Drosophila OR85b; OR85b cell line, cc. 100 µM) | DF norm AVERAGE OR85b (Drosophila OR85b; [1]) | DF norm AVERAGE OR85b (Drosophila OR85b; [2]) | DF norm AVERAGE OR85b (Drosophila OR85b; [3]) | OR10a DoOR response (OR10a) | OR13a DoOR response (OR13a) | OR47a DoOR response (OR47a) | OR49b DoOR response (OR49b) | OR71a DoOR response (OR71a) | OR85b DoOR response (OR85b) | OR98a DoOR response (OR98a) | DF norm AVERAGE OR85b (Drosophila OR85b; [4]) | DF norm AVERAGE OR85b (Drosophila OR85b; [5]) | DF norm AVERAGE OR85b (Drosophila OR85b; [6]) | also measured |
| --- | --- | --- | --- | --- | --- | --- | --- | --- | --- | --- | --- | --- | --- | --- | --- | --- | --- | --- | --- | --- |
| C=CC(O)CCCCC (centres unmarked) [1-octen-3-ol] | 0 | 0 | 8 | 0.00 | 0.0043 | 0.08 | 0 | 0 | 0.08325 | 0.019 | 0.78 | 0.25 | 0.016 | 0.09 | 0.53 | 0.58 |  |  |  |  |
| CCCCCC(=O)CC [3-octanone] | 0 | 0 | 9 | 0.00 | 0.00 | 0.09 | 0 | 0 | 0.08805 |  |  |  |  | 0.016 |  |  |  |  |  |  |
| CC/C=C\CCO [Z-3-hexenol] |  |  |  |  |  |  |  |  |  |  |  |  |  |  |  |  |  |  |  | OR85b response (VUAA1-normalized) at 1 μM (Drosophila OR85b; OR85b cell line, VOC concentration 1 μM): 0.0533; OR85b response (VUAA1-normalized) at 10 μM (Drosophila OR85b; OR85b cell line, VOC concentration 10 μM): 0.00; OR85b response (VUAA1-normalized) at 100 μM (Drosophila OR85b; OR85b cell line, VOC concentration 100 μM): 0.00; OR10a DoOR response (OR10a; OR10a): 0.007; OR13a DoOR response (OR13a; OR13a): 0.37; OR47a DoOR response (OR47a; OR47a): 0.14; OR49b DoOR response (OR49b; OR49b): 0.07; OR85b DoOR response (OR85b; OR85b): 0.60; OR98a DoOR response (OR98a; OR98a): 0.44 |
| CCCCOC(C)=O [butyl acetate] | 0 | 0 | 0 | 0.00 | 0.00 | 0.00 |  |  |  | 0.27 | 0.31 | 0.77 | 0.035 |  | 0.78 | 0.70 | 0 | 0 | 0 |  |
| CC(C)=CCC/C(C)=C/CC/C(C)=C/CO [e,e-farnesol] |  |  |  | 0.053 | 0.08 | 0.00 |  |  |  | 0.014 | 0.075 |  |  | 0.11 |  |  | 0.05296 | 0.07925 | 0 | OR85b response (VUAA1-normalized response) (Drosophila OR85b; VOC concentration 1 μM): 0.053; OR85b response (VUAA1-normalized response) (Drosophila OR85b; VOC concentration 10 μM): 0.08; OR85b response (VUAA1-normalized response) (Drosophila OR85b; VOC concentration 100 μM): 0.00 |
